Legend:
[1] = in vivo; cited from earlier work
[2] = tested on: melatonin receptor; conditions: relative to agomelatine; cited from earlier work
[3] = In vitro liver microsomal stability assay; format: in vitro ADME; conditions: 1 mg per mL liver microsome protein, NADPH-generating system, 5 microgram per mL compound, 37° C., 0-60 min, LC/MS/MS
Procedure: Liver microsomal stability assays are conducted at 1 mg per mL liver microsome protein with an NADPH-generating system in 2% NaHCO3 (2.2 mM NADPH, 25.6 mM glucose 6-phosphate, 6 units per mL glucose 6-phosphate dehydrogenase and 3.3 mM MgCl2). Test compounds are prepared as solutions in 20% acetonitrile-water and added to the assay mixture (final assay concentration 5 microgram per mL) and incubated at 37° C. Final concentration of acetonitrile in the assay should be <1%. Aliquots ([…]) are taken out at times 0, 15, 30, 45, and 60 min, and diluted with ice cold acetonitrile (200 μL) to stop the reactions. Samples are centrifuged at 12,000 RPM for 10 min to precipitate proteins. Supernatants are transferred to microcentrifuge tubes and stored for LC/MS/MS analysis of the degradation half-life of the test compounds. […] For example, the degradation half-life of Example 9 was increased by 20% as compared to non-isotopically enriched agomelatine.

Question: For `COc1ccc2cccc(CCNC(C)=O)c2c1` [agomelatine, N-[2-(7-Methoxy-naphthalen-1-yl)-ethyl]-acetamide], which terminal elimination half-life [1] is on record?
Answer: The terminal elimination half-life was 2.3 h.

Question: For `CC(=O)NCCc1cccc2ccc(O)cc12` [S 21517], which “fold less potency for the melatonin receptor than the parent compound (agomelatine)” value [2] is on record?
Answer: Its value is 100 fold.

Question: With `[2H]C([2H])([2H])Oc1ccc2cccc(C([2H])([2H])C([2H])([2H])NC(=O)C([2H])([2H])[2H])c2c1` [Example 9, d10-N-[2-(7-Methoxy-naphthalen-1-yl)-ethyl]-acetamide] as the compound, how does the “increase in the degradation half-life as compared to the non-isotopically enriched drug (agomelatine)” value [3] read?
Answer: Its value is 20%.

Source: patent publication US20080280991A1, “SUBSTITUTED NAPHTHALENES” (AUSPEX PHARMACEUTICALS, INC., priority 2007, published 2008)
